This is an account of results in patent publication US9981023B2, “Compositions and methods for inducing immune tolerance” (The Scripps Research Institute, priority 2010, dated 2018).

This experiment has as its target T1, CD22 (Mus musculus, UniProt P35329).
T1 sequence (P35329 22-868): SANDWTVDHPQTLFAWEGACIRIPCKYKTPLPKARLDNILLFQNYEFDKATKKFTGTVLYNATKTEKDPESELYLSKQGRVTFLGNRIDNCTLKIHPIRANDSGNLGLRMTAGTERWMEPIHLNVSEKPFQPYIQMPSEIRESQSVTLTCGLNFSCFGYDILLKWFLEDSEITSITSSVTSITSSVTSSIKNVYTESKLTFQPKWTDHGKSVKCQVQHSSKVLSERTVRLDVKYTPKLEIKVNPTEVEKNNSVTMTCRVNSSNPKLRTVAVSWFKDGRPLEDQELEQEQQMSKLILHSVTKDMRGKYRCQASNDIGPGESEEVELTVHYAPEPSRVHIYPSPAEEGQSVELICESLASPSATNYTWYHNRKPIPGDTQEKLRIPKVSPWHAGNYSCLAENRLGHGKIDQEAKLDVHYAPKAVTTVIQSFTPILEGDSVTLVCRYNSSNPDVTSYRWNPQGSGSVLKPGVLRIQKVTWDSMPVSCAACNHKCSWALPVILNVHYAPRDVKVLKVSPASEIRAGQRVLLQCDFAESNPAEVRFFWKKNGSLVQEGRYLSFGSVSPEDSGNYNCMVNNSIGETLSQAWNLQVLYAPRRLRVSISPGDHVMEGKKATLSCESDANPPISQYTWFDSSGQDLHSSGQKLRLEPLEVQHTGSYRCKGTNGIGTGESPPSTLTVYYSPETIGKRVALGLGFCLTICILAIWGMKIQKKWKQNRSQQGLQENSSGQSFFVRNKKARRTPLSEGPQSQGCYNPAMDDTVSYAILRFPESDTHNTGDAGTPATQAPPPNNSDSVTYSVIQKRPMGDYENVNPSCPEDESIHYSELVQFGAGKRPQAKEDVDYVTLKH
The experiment is described as follows: Affinity of glycan ligand for CD22. It counts as binding. The following applies: natural ligand of CD22 relative to ^BPANeuGc.

With `CC(=O)NC1C(O)OC(CO)C(OC2OC(COC3(C(=O)O)CC(O)C(NC(=O)CO)C(C(O)C(O)CO)O3)C(O)C(O)C2O)C1O` (stereo not shown) [NeuGcα2-6Galβ1-4GlcNAc], the “affinity lower than the ^BPANeuGc ligand” value is given as “approximately 200 fold”.
